This is an account of results in PMC10347458 (Leukemia, 2023).

A word on the AUC(0-inf): it is total exposure, with the tail of the curve extrapolated. Higher therefore signals more exposure. As a reminder, the CL/F is the apparent clearance, not corrected for the fraction that reaches the circulation. In general, Cmax refers to the peak of the concentration-time curve. Broadly, the Tmax is the time at which the peak concentration occurs. What is called half-life is how long it takes for the measured level to halve. A higher half-life goes with slow decline. The AUC(0-t) is exposure summed from dosing to a finite time, without extrapolation to infinity. Lower therefore signals less exposure. Broadly, the EC90 is the point of the concentration-response curve where the effect stands at 90%.

Data set [1] concerns human T-ALL samples. In words: Ex vivo leukemia sensitivity. Type of data set: cell-based.
The format of data set [2] is in vivo, NSG mice. To be noted: for AUC(0-inf) / CL/F / Cmax / Tmax / half-life / AUC(0-t): NSG, mouse, in vivo, po; for AUC(0-t): AUC0–24hrs.
Data set [3] relates to pCRKL. To be noted: chronic myeloid leukemia (CML) patients; cited from earlier work.
Data set [4] addresses LCK (T316I) in KOPT-K1-R (Homo sapiens, UniProt P06239, T316I). The settings on record: 100nM, 3 hrs treatment.
The target of data set [5] is pLCK (phosphorylated LCK) (Homo sapiens, UniProt P06239). In words: PD: pLCK. Type of data set: in vivo. The settings on record: for Median duration of pLCK/LCK <50% (10th-90th percentile): mice (Table 2).
Data set [6] deals with LCK-activated T-ALL PDX models. Description: In vivo evaluation of ponatinib efficacy in T-ALL PDXs. Also on record: species or system NSG mice. The settings on record: 30 mg/kg once daily oral, three T-ALL PDX models, blast % in peripheral blood.

≈ marks a conversion by molar mass, not a printed value. Like-named read-outs stand apart in the source and are kept apart here.

Chain of pLCK (phosphorylated LCK) (P06239 whole entry): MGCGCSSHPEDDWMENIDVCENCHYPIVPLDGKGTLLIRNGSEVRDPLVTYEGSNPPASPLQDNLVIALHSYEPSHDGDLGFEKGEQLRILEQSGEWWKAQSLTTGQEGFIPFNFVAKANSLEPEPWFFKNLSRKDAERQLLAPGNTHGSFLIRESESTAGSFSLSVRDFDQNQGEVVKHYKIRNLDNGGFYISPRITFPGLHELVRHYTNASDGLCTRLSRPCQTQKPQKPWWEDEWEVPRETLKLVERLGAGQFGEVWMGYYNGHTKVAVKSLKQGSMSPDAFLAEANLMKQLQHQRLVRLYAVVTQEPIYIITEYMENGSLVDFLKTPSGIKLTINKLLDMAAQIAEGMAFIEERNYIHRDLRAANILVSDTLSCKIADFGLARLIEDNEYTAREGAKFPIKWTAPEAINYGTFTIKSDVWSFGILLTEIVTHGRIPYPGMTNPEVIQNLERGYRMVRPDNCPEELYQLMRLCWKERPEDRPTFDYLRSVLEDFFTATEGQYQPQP
Chain of LCK (T316I) in KOPT-K1-R (P06239 whole entry T316I): as the sequence (P06239 whole entry) above, with T316I counted along it

`Cc1nc(Nc2ncc(C(=O)Nc3c(C)cccc3Cl)s2)cc(N2CCN(CCO)CC2)n1` [dasatinib]: the “Dasatinib sensitivity (LC50 <80nM) observed” value in data set [1] (adult T-ALL) was 9.1%. Moreover, the “Dasatinib sensitivity (LC50 <80nM) observed” value in data set [1] (pediatric T-ALL) was 47.5%. In addition, in data set [2] (20 mg/kg), the AUC(0-inf) was determined as 0.5 µg·h/mL, the apparent clearance (CL/F) is 40 L/h/kg, the Cmax amounted to 0.102 µg/mL and the Tmax stood at 1.17 h. Moreover, the half-life in data set [2] (20 mg/kg) was 0.35 h. In data set [2] (40 mg/kg), the AUC(0-inf) worked out at 1.95 µg·h/mL, the CL/F amounted to 20.5 L/h/kg, the Cmax worked out at 0.366 µg/mL and the Tmax came to 1.17 h. In data set [2] (40 mg/kg), the half-life was 0.34 h and the AUC(0-t) was 1.94 µg·h/mL. Also, the “Time above 50% pCRKL inhibition considered sufficient to elicit a clinical response” value in data set [3] was 12.8 hrs per day.

As to `Cc1ccc(C(=O)Nc2ccc(CN3CCN(C)CC3)c(C(F)(F)F)c2)cc1C#Cc1cnc2cccnn12` [ponatinib], the “LC50 compared with that of dasatinib” value in data set [1] (51 samples with both drugs tested, P =0.0038, Wilcoxon matched-pairs signed rank test) was “significantly lower”. Besides, in data set [1] (Homo sapiens, read-out: Median LC50), the CC50 was 0.433 µM. Moreover, in data set [1] (all 52 T-ALL cases (n=17)), the “Samples classified as sensitive to ponatinib (LC50 cutoff 90nM)” value was determined as 32.7%. Also, in data set [2] (15 mg/kg), the AUC(0-inf) is 1.53 µg·h/mL, the CL/F was 9.78 L/h/kg, the highest level (Cmax) was 0.181 µg/mL and the Tmax stood at 3.04 h. Also, the half-life in data set [2] (15 mg/kg) is 1.92 h. Besides, in data set [2] (15 mg/kg, ponatinib 15 mg (15 mg/kg) single oral dose, NSG mice, median (5th-95th percentile)), the AUC(0-t) was determined as 1.53 µg·h/mL. In data set [2] (30 mg/kg), the AUC(0-inf) was determined as 3.01 µg·h/mL, the CL/F is 9.97 L/h/kg, the peak level (Cmax) was 0.356 µg/mL and the Tmax was found to be 3.08 h. Besides, the half-life in data set [2] (30 mg/kg) is 1.92 h. Further, the AUC(0-t) in data set [2] (30 mg/kg, ponatinib 30 mg (30 mg/kg) single oral dose, NSG mice, median (5th-95th percentile)) is 3 µg·h/mL. Besides, the “AUC0–24hrs” value in data set [2] (ponatinib 30 mg (30 mg/kg) single oral dose, NSG mice, median (5th-95th percentile)) is 2996.56 (2707.46–3351.17) ng hr/mL. Besides, the “Block of LCK phosphorylation” value in data set [4] is reported as “around 50%”. For the same compound, in data set [5] (po, read-out: EC90 (CV%)), the concentration for an effect of 90% (EC90) came to 0.063 mg/L (≈ 0.118 µM). The “Median duration of pLCK/LCK <50% (10th-90th percentile)” value in data set [5] (ponatinib 15 mg/kg oral) was 15 mg/kg 10.5 (0, 24.0) hrs/day. The “Median duration of pLCK/LCK <50% (10th-90th percentile)” value in data set [5] (ponatinib 30 mg/kg oral) was 30 mg/kg 14.8 (0, 24.0) hrs/day. In addition, the “Leukemia growth in mice vs vehicle control” value in data set [6] was “significantly inhibited leukemia growth”.
